Measured values: patent US20130189347A1, “DISEASE TREATMENT DRUG” (priority 2010, published 2013)

Legend:
B16 melanoma cells [1] = test: Early-stage cancer: rate of increase in tumor volume in B16 melanoma-transplanted mice; assay type: in vivo, ICR mice; conditions: CDDP 0.9 mM, 0.2 ml/mouse/dose via tail vein
Experimental: Five female, six-week-old IRC mice were assigned per group.
iron porphyrin complex/PLLA60wt%-F88 micelles (polymer capsule, 5 mM/0.7 wt %) were used.
As the sample drug (concentration) of the comparative example, CDDP (0.9 mM) was used.
(§1) B16 melanoma cells were used.
The amount of cancer cells injected was 1×10^5/mouse/0.05 ml, which is 1/10 that for end-stage cancer.
Anchoring of the cancer was confirmed on the 10th day after cancer cell transplantation. The mice were separated into five mice each for the required number of groups (three groups: two groups for the sample drugs and one control group). At the same time, the short diameter and the long diameter of the cancer cell volume in each mouse were measured every two days using calipers. The following equation was calculated:
(§2) [tumor volume]=½×[long diameter]×[short diameter]^2

[2] = End-stage cancer experiment: weight fluctuation, death and side effects
Experimental: Five female, six-week-old C57BL/6CrSlC mice were assigned per group.
B16 melanoma dispersed in phosphate buffered saline (PBS) was injected into the foot pads (sole) of the mice (C57BL/6, female, six-weeks-old), and cancer was transplanted. The amount of cancer cells injected was 1×10^6/mouse/0.05 ml. The site of injection was within the limited area of the foot pad, in an environment where numerous fine blood vessels, such as capillaries, are present.
In addition, administration of the sample drugs (administered amount: 0.1 ml/mouse/dose) was started on the 13th day after cancer cell transplantation. Drug administration was conducted a total of four times, via tail vein every four days. The weight of each mouse was measured every two days.

B16 melanoma cells [3] = test: End-stage cancer: rate of increase in tumor volume in B16 melanoma-transplanted mice; assay type: in vivo, C57BL/6CrSlC mice
Experimental: iron porphyrin complex/pH-sensitive liposomes (5 mM/36 mM) and iron porphyrin complex/DPPC-PEG liposomes (5 mM/36 mM) were used […]
as §1
Anchoring of the cancer was confirmed on the 10th day after cancer cell transplantation. The mice were separated into five mice each for the required number of groups (four groups: three groups for the sample drugs and one control group). At the same time, the short diameter and the long diameter of the cancer cell volume in each mouse were measured every two days using calipers. The following equation was calculated:
as §2

With `[NH2][Pt]([NH2])([Cl])[Cl]` [CDDP, Cisplatin] the “suppression of increase in tumor volume” value (B16 melanoma cells [1]) was “about ten”.

With `CO[C@@]12[C@H](COC(N)=O)C3=C(C(=O)C(C)=C(N)C3=O)N1C[C@@H]1N[C@@H]12` [MMC, mitomycin] the mice that died ([2]; during 20 days of observation, five mice per group, MMC 0.9 mM, 0.5 mM) was “two”, the “weight increase and decrease (weight fluctuation)” value ([2]; end-stage cancer, weight measured every two days, FIG. 5) was “severe weight fluctuations” and the “observation of the transplanted foot” value (B16 melanoma cells [3]) was “necrosis occurred in the foot itself”. For the same molecule, the “course of tumor volume” value (B16 melanoma cells [3]; four days after administration of the drug) was “sudden increase in tumor volume”.
